Experimental data taken from patent US4132802A, “Benzoic acid derivative and benzenesulfonic acid mucolytic process” (Mead Johnson & Company, priority 1978, dated 1979).
“And” between values parts separate entries of the source, which are not always exact repeats. Equal values may be shown once. Read-outs that look alike come from different tables or passages of the source.

Columns and labels:
[1] = Toxicity (LD50, TD50) in the mouse; details: in vivo
Source text: The substances of Formula I are relatively non-toxic substances substantially free of other pharmacologic action.

[2] = Mucolytic activity: percent reduction in viscosity of sputum, cone-plate viscometer (method of Lieberman); set-up: species or system human; details: for Relative molar potency compared to N-acetyl-L-cysteine: on a molar basis, N-acetyl-L-cysteine = 1; for Mucolytic activity compared to N-acetyl-L-cysteine (in words): compared with N-acetyl-L-cysteine
Procedure: Mucolytic activity was determined using the method of J. Lieberman, Am. J. Resp. […] This is a viscometric method which employs a cone-plate viscometer (Brookfield Engineering Laboratories, Inc., Stoughton, Mass.). According to this method, a 2 ml. aliquot of a batch of purulent human sputum (obtained from bronchitic patients) is transferred to the center of the viscometer plate and the temperature is allowed to equilibrate. The plate is then rotated at gradually increasing speeds up to 100 r.p.m. during a 2-minute period. This reduces the amount of sputum on the test plate to 1 ml. and reduces the viscosity of the specimen to a reproducible value which is necessary because of the thixotropic properties of sputum. […] The test is repeated with N-acetyl-L-cysteine employing another aliquot of sputum to establish a control for comparison purposes. Relative molar potencies compared to N-acetyl-L-cysteine (NAC) can be determined by varying concentration of the test agent until approximately equivalent mucolytic activity is obtained.

Structure (SMILES) | Percent reduction in viscosity ([2]; 0.005 Molar, 1 min, 5000 µM) [%] | Percent reduction in viscosity ([2]; 0.005 Molar, 3 min, 5000 µM) [%] | Percent reduction in viscosity ([2]; 0.005 Molar, 6 min, 5000 µM) [%] | Percent reduction in viscosity ([2]; 0.005 Molar, 9 min, 5000 µM) [%] | Percent reduction in viscosity ([2]; 0.005 Molar, 12 min, 5000 µM) [%] | Percent reduction in viscosity ([2]; 0.005 Molar, 15 min, 5000 µM) [%] | Percent reduction in viscosity ([2]; 0.01 Molar, 1 min, 10000 µM) [%] | Percent reduction in viscosity ([2]; 0.01 Molar, 3 min, 10000 µM) [%] | Percent reduction in viscosity ([2]; 0.01 Molar, 6 min, 10000 µM) [%] | Percent reduction in viscosity ([2]; 0.01 Molar, 9 min, 10000 µM) [%] | Percent reduction in viscosity ([2]; 0.01 Molar, 12 min, 10000 µM) [%] | Percent reduction in viscosity ([2]; 0.01 Molar, 15 min, 10000 µM) [%] | Relative molar potency compared to N-acetyl-L-cysteine [2] | Percent reduction in viscosity ([2]; 0.03 Molar, 1 min, 30000 µM) | Percent reduction in viscosity ([2]; 0.03 Molar, 3 min, 30000 µM) | Percent reduction in viscosity ([2]; 0.03 Molar, 6 min, 30000 µM) | Percent reduction in viscosity ([2]; 0.03 Molar, 9 min, 30000 µM) | Percent reduction in viscosity ([2]; 0.03 Molar, 12 min, 30000 µM) | Percent reduction in viscosity ([2]; 0.03 Molar, 15 min, 30000 µM) | Mucolytic activity compared to N-acetyl-L-cysteine (in words) [2] | further results
O=C(CS)Nc1ccc(C(=O)O)cc1 [Compound 1, 4-(2-MERCAPTOACETAMIDO)BENZOIC ACID] | 32 | 50 | 57 | 55 | 55 | 55 | 45 | 63 | 69 | 76 | 82 | 84 | approximately 12 times | – | – | – | – | – | – | – | LD50 ([1]; ip, intraperitoneally, read-out: LD50): 1110 mg/kg; TD50 ([1]; named in the same clause as the oral LD50, read-out: approximate TD50): ~250 mg/kg; LD50 ([1]; oral, read-out: approximate LD50): ~2000 mg/kg
O=C(CS)Nc1ccc(C(=O)NCCO)cc1 [Compound 4, N-(2-HYDROXYETHYL)-4-(2-MERCAPTOACETAMIDO)BENZAMIDE] | 30 | 58 | 67 | 75 | 82 | 82 | – | – | – | – | – | – | approximately 15 times | – | – | – | – | – | – | – | Percent reduction in viscosity ([2]; 0.001 Molar, 1 min): 25%; Percent reduction in viscosity ([2]; 0.001 Molar, 3 min, 1000 µM): 32%; Percent reduction in viscosity ([2]; 0.001 Molar, 6 min, 1000 µM): 36%; Percent reduction in viscosity ([2]; 0.001 Molar, 9 min, 1000 µM): 36%; Percent reduction in viscosity ([2]; 0.001 Molar, 12 min, 1000 µM): 36%; Percent reduction in viscosity ([2]; 0.001 Molar, 15 min, 1000 µM): 34%; Percent reduction in viscosity ([2]; 0.002 Molar, 1 min, 2000 µM): 26%; Percent reduction in viscosity ([2]; 0.002 Molar, 3 min, 2000 µM): 37%; Percent reduction in viscosity ([2]; 0.002 Molar, 6 min, 2000 µM): 42%; Percent reduction in viscosity ([2]; 0.002 Molar, 9 min, 2000 µM): 44%; Percent reduction in viscosity ([2]; 0.002 Molar, 12 min, 2000 µM): 44%; Percent reduction in viscosity ([2]; 0.002 Molar, 15 min, 2000 µM): 42%
CC(=O)SCC(=O)Nc1ccc(C(=O)O)cc1 [Compound 5, 4-[2-(ACETYLTHIO)ACETAMIDO]BENZOIC ACID] | – | – | – | – | – | – | – | – | – | – | – | – | – | 34% | 42% | 54% | 54% | 52% | 48% | significantly more active than N-acetyl-L-cysteine | –
O=C(CS)Nc1ccc(S(=O)(=O)O)cc1 [Compound 3, N-(2-MERCAPTOACETYL)SULFANILIC ACID] | 34 | 47 | 50 | 50 | 47 | 44 | 46 | 64 | 66 | 68 | 77 | 82 | – | – | – | – | – | – | – | – | –
O=C(CS)Nc1cccc(C(=O)O)c1 [Compound 2, 3-(2-MERCAPTOACETAMIDO)BENZOIC ACID] | – | – | – | – | – | – | – | – | – | – | – | – | – | 44% | 67% | 81% | 89% | 91% | 93% | substantially more active than N-acetyl-L-cysteine | –
CC(=O)N[C@@H](CS)C(=O)O [NAC, N-acetyl-L-cysteine, reference compound] | – | – | – | – | – | – | – | – | – | – | – | – | – | 25% and 29% and 33% | 32% and 33% and 34% | 40% and 36% | 42% and 40% and 34% | 42% and 43% and 34% | 40% and 34% | – | Percent reduction in viscosity ([2]; 0.06 Molar, 1 min, 60000 µM): 36%; Percent reduction in viscosity ([2]; 0.06 Molar, 3 min, 60000 µM): 45%; Percent reduction in viscosity ([2]; 0.06 Molar, 6 min, 60000 µM): 52%; Percent reduction in viscosity ([2]; 0.06 Molar, 9 min, 60000 µM): 50%; Percent reduction in viscosity ([2]; 0.06 Molar, 12 min, 60000 µM): 52%; Percent reduction in viscosity ([2]; 0.06 Molar, 15 min, 60000 µM): 60%
